We go through one compound from US20250255850A1, “PHARMACEUTICAL COMPOSITIONS FOR TREATING NEUROLOGICAL CONDITIONS” (YISSUM RESEARCH DEVELOPMENT COMPANY OF THE HEBREW …, priority 2021, published 2025).

SMILES strings stand for the structures.

Data set [1] deals with SH-SY5Y cells. As to the kind of experiment: Nitrite (Griess) assay in SH-SY5Y cells. It counts as cell-based, human. The following applies: 7-NI 100 μM 24 hours or 20 nM nNOS siRNA 24 hours. On the procedure: (§1) Human NB SH-SY5Y cells were obtained from the American Type Culture Collection (ATCC) and maintained in Dulbecco's modified Eagle's medium (DMEM) and Ham's F-12 (1:1) supplemented with 10% fetal bovine serum, 2 mM L-glutamine, and 100 U/ml penicillin-G/100 […] streptomycin in a humidified atmosphere (37° C., 5% CO2). Cells were plated onto 25 cm^2 and 75 cm^2 plates at a density of 7.0×10^5 and 2.1×10^6 cells/cm^2 respectively for Western blotting (WB) and 1×10^5 for immunofluorescence. The SH-SY5Y cells were treated with 100 μM 7-nitroindazole (7-NI) for 24 hours (Fujibayashi et al., 2015). This concentration was confirmed in a dose-response experiment (FIG. 14A) using an MTT viability assay.
(§2) SH-SY5Y cells were plated in 6 well plates, as well as on 22 mm^2 coverslips at a density of 6.0×10^4 cells/cm^2 and transfected with 20 nM nNOS siRNA (NOSIHSS1072, Invitrogen) for 24 hours, with the use of Lipofectamine RNAi MAX (56530, Invitrogen) according to the manufacturer's protocol. Then cells were washed with phosphate-buffered saline (PBS) and harvested for WB and fixed for immunofluorescence (Fujibayashi et al., 2015).
Released NO was measured with Griess assay Kit (Sigma-Aldrich, Cat. No. 23479) using the manufacturer's instructions.
On the technique in general: The Griess reaction detects nitrite, a stable product of nitric oxide.

Data set [2] can be described thus: Solubility of 7-nitroindazole in PNL formulation of Table 1. Conditions: PNL formulation of Table 1, clear liquid. The data set is classed as physicochemical. The source says:
Table 1 below presents an exemplary PNL formulation according to some embodiments of the present invention.
The formulation can be prepared by mixing the components at room or elevated temperature to form a clear liquid which 7-nitroindazole is soluble in at about 20% w/v.

The subject of the next data set is CNTNAP2−/− mutant mice. As to the kind of experiment: Elevated plus maze test, CNTNAP2-/- mutant mice (M2). Conditions: 7-NI i.p. 80 mg/kg daily for 10 days, vs untreated mutant mice. The data set is classed as in vivo, mouse. As to the method:
(§3) Behavioral testing started after 2 hours of treatment.
Elevated plus maze test (see, FIG. 4C): The elevated plus-maze consisted of four arms (30×5 cm), two open, and the other two closed. The platform was made of white plexiglass. The apparatus was elevated 45 cm above the floor. The test, described in, was initiated by placing the mouse on the central platform of the maze, facing one of the open arms, and letting it move freely. Each session lasted 5 min. The time spent in the close and open arms was recorded.
In another set of tests, the potential effects of inhibiting NO on the cognitive functions was assayed on an additional mouse model of ASD-CNTNAP2−/− mutant mice. The mice were divided into three testing groups: WT mice, CNTNAP2−/− mutant mice (M2), and mutant mice that were administered with 7-NI (M2+7NI).

The test system of data set [3] is SH-SY5Y cells. In words: Western blot of 3-nitrotyrosine, mTOR signaling pathway components and synaptophysin. It counts as cell-based, human. On the procedure: as §1, §2
Cells were lysed in ice-cold RIPA buffer containing 50 mM Tris-HCl, 1% Nonidet P-40, 0.25% sodium deoxycholate, 150 mM NaCl, protease-, and phosphatase inhibitor cocktails, pH 7.4. After sonication, the lysates were centrifuged at 17,000 g for 30 minutes at 4° C., and the supernatant was collected. The protein concentrations were determined with the BCA protein assay. Proteins were resolved by SDS-PAGE, transferred to a PVDF membrane, and probed with the following antibodies: anti-pMTOR (rabbit, diluted 1:1000), anti-mTOR (rabbit, diluted 1:1000), anti-TSC2 (rabbit, diluted 1:1000), anti-nNOS (rabbit, diled 1:1000), anti-pAKT (rabbit, diluted 1:1000), anti-AKT (rabbit, diluted 1:1000), anti-pRPS6 (rabbit, diluted 1:1000), anti-RPS6 (mouse, diluted 1:1000), anti-synaptophysin (mouse, diluted 1:1000), anti-β-actin (rabbit, diluted 1:1000), anti-3-Nitrotyrosine (rabbit, diluted 1:5000) from Abcam. All primary antibodies, except anti-3-Nitrosine, were purchased from Cell Signaling Technology. The blots were then visualized using an enhanced chemiluminescence (ECL) system (Choi et al., 2018).
On the technique in general: In western blotting, separated proteins are transferred to a membrane and probed.

Data set [4] has as its system SH-SY5Y cells. In words: Clonogenic survival assay. The data set is classed as cell-based, human. The following applies: 7-NI 100 μM for 24 hours or siRNA-nNOS, 14 days. On the procedure: Cells were seeded into 6-well plates at concentrations of 500/well or 1000/well in triplicates. After 24 hours, 7-NI was added (100 μM for 24 hours), or cells were transiently transfected with siRNA-nNOS, as described above, before changing to serum-containing medium. Cells were incubated for 14 days to form visible colonies. Colonies were stained with crystal violet, washed with PBS, air-dried, and imaged. The colonies were visualized using ImageJ software. Cell colonies of greater than 50 cells were identified and counted (Lopez-Rivera et al., 2014).

For data set [5], the system named is Mutant mice (CNTNAP2 and SHANK3 mouse models). As to the kind of experiment: Sociability test, 7-NI-treated mutant mice (Example 3). The data set is classed as in vivo. Conditions: 7-NI IP 80 mg/kg/day for 7 days; mutant mice vs vehicle. As to the method: as §3
Three-chambered sociability test (see, FIG. 4B): Sociability and preference for social novelty and social recognition were tested in a three-chambered apparatus. The subjected mouse was first placed in the central, neutral chamber and allowed to explore for 10 minutes with all the doors closed. Next, doors were opened and the mouse was allowed to freely explore the other two empty chambers (1 and 2) for an additional 10 minutes. Lack of side preference was confirmed during this habituation.
Two cylindrical wire cages were placed, one in chamber 1 and the other in chamber 2. For the sociability test, the test animal was introduced to the middle chamber and allowed to adjust for 5 minutes. Then, an unfamiliar mouse was introduced into a wire cage in one of the side-chambers, and the other side-chamber remained empty. The time spent by the test mouse exploring the wire cage with an unfamiliar mouse inside was recorded for 5 minutes.
7-nitroindazole (7-NI) is a selective inhibitor of neuronal nitric oxide synthase. Mutant mice were administered with 7-NI […] (IP), 80 mg/kg/day for 7 days, as described hereinabove. […]

The mark [6] stands for this setting: 7-NI 100 μM 24 hours or nNOS silencing.

Take `O=[N+]([O-])c1cccc2cn[nH]c12` [7-NI, 7-nitroindazole]: the “nitrite content (Griess assay)” value in the data set with SH-SY5Y cells [1] was “reduction of nitrite content”. In data set [2], the “solubility in PNL formulation” value is on record as “about 20 % w/v”. For the same compound, the “anxiety like behaviors (elevated plus maze)” value in the data set with CNTNAP2−/− mutant mice was “exhibited less anxiety like behaviors”. Also, the “levels of synaptophysin (Syp, Western blot)” value in the data set on SH-SY5Y cells [3] (7-NI 100 μM 24 hours or genetic ablation of nNOS) is on record as “significantly decreased the levels of synaptophysin”. Further, in the data set with SH-SY5Y cells [3] (7-NI 100 μM 24 hours or nNOS knockdown), the “3-Ntyr levels (Western blot)” value is on record as “halved”. In the data set with SH-SY5Y cells [3] (setting [6]), the “levels of TSC-2 (Western blot)” value was “significant increase in the levels of TSC-2”, the “phosphorylation of RPS6 (Western blot)” value is “reduced”, the “phosphorylation of mTOR (Western blot)” value was “decrease in phosphorylation of mTOR” and the “phosphorylation of protein kinase-B (AKT) (Western blot)” value is listed as “reduced”. Further, in the data set on SH-SY5Y cells [4], the “number of colonies (clonogenic survival)” value was “decrease in the number of colonies”. The “time interacting with the stranger cage (sociability test)” value in data set [5] is on record as “spent significantly more time interacting with the stranger cage”.
